From ChEMBL document CHEMBL1136084, “N-(4-[4-(2,3-dichlorophenyl)piperazin-1-yl]butyl, butenyl and butynyl)arylcarboxamides as novel dopamine D(3) receptor antagonists” (Bioorg Med Chem Lett, 2003)

Legend:
[1] = molecular target: D(3) dopamine receptor (Rattus norvegicus, UniProt P19020); test: Binding affinity towards rat Dopamine receptor D3 in Sf9 cells expressing in recombinant baculovirus (Bv) using [125I]IABN as radioligand
[2] = molecular target: D(2) dopamine receptor (Rattus norvegicus, UniProt P61169); test: biochemical
Chain of D(2) dopamine receptor (P61169 whole entry): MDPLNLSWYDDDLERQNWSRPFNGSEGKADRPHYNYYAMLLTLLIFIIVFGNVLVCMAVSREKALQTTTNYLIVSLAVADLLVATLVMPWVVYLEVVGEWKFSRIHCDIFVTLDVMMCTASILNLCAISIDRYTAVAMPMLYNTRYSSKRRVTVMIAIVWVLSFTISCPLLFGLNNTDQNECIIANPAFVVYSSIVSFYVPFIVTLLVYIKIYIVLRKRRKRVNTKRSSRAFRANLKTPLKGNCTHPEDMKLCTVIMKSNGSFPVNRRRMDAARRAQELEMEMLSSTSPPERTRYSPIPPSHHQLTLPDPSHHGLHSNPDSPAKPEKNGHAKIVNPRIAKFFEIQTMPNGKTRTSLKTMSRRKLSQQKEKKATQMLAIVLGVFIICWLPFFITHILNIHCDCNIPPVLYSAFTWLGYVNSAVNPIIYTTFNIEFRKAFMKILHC

[3] = molecular target: D(3) dopamine receptor (Homo sapiens, UniProt P35462)
Chain of D(3) dopamine receptor (Homo sapiens, UniProt P35462) (P35462 whole entry): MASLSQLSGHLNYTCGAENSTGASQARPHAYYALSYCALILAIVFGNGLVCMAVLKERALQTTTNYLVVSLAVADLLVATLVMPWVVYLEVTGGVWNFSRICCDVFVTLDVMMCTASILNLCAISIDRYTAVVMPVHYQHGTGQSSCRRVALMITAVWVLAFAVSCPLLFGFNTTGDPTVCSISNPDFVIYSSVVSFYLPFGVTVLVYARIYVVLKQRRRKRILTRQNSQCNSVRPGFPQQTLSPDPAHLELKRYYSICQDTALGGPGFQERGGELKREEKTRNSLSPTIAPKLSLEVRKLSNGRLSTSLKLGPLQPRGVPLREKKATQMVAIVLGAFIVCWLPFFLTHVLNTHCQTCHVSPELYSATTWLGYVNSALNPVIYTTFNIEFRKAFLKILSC
Description: Antagonistic activity of quinpirole stimulation of mitogenesis in human Dopamine receptor D3 transfected CHO cells

Chain of D(3) dopamine receptor (Rattus norvegicus, UniProt P19020) (P19020 whole entry): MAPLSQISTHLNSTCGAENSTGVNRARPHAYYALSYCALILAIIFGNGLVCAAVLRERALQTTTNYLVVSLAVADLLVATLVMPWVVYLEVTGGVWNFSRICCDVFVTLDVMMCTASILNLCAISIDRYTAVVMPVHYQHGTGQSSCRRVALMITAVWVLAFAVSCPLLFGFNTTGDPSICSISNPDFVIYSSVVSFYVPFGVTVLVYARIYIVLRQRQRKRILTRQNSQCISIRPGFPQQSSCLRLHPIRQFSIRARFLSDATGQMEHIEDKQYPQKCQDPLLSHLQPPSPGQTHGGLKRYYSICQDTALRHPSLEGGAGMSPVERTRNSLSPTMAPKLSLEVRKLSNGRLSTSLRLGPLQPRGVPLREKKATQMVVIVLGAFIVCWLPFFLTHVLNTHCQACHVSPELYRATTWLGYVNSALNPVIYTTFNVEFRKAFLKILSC

| SMILES | Ki [1] [nM] | Ki [2] [nM] | IC50 [3] [nM] |
| --- | --- | --- | --- |
| O=C(NCCCCN1CCN(c2cccc(Cl)c2Cl)CC1)c1ccc(-c2ccccn2)cc1 | 0.6 | 57.9 |  |
| O=C(NCCCCCN1CCN(c2cccc(Cl)c2Cl)CC1)c1cccc2c1-c1ccccc1C2=O | 2 | 35.3 |  |
| O=C(NC/C=C\CN1CCN(c2cccc(Cl)c2Cl)CC1)c1cccc2c1-c1ccccc1C2 | 6.5 | 10.7 |  |
| O=C1c2ccccc2C(=O)N1CCCCN1CCN(c2cccc(Cl)c2Cl)CC1 | 4.8 | 102 |  |
| O=C(NC/C=C/CN1CCN(c2cccc(Cl)c2Cl)CC1)c1ccccc1 | 1.3 | 50.1 |  |
| O=C1c2ccccc2C(=O)N1CCCCCN1CCN(c2cccc(Cl)c2Cl)CC1 | 5.6 | 86.4 |  |
| O=C(NC/C=C/CN1CCN(c2cccc(Cl)c2Cl)CC1)c1ccc2c(c1)Cc1ccccc1-2 | 5.9 | 198 |  |
| Nc1ccc2c(c1)-c1c(cccc1C(=O)NCCCCN1CCN(c3cccc(Cl)c3Cl)CC1)C2 | 3.5 | 79.3 |  |
| O=C(NCCCCN1CCN(c2cccc(Cl)c2Cl)CC1)c1cc2cc(F)ccc2[nH]1 | 2.6 |  |  |
| O=C(NC/C=C/CN1CCN(c2cccc(Cl)c2Cl)CC1)c1cccc2c1-c1ccccc1C2 | 19 | 106 |  |
| O=C(NCCCN1CCN(c2cccc(Cl)c2Cl)CC1)C1c2ccccc2-c2ccccc21 | 34 | 250 |  |
| O=C(NC/C=C\CN1CCN(c2cccc(Cl)c2Cl)CC1)c1ccccc1 | 4.9 | 20 |  |
| O=C(NCCCCN1CCN(c2cccc(Cl)c2Cl)CC1)c1ccc(I)cc1 | 1.4 | 87.5 |  |
| O=C(NCCCCN1CCN(c2cccc(Cl)c2Cl)CC1)C1c2ccccc2-c2ccccc21 | 11.1 | 55.2 |  |
| O=C(NCCCN1CCN(c2ccccc2)CC1)C1c2ccccc2-c2ccccc21 | 84.5 | 1020 |  |
| O=C(NCCCCN1CCN(c2cccc(Cl)c2Cl)CC1)c1cnc2ccccc2n1 | 1.9 | 109 | 26.9 |

More lines, main results first:

| Ki [1] [nM] | Ki [2] [nM] | SMILES | IC50 [3] [nM] |
| --- | --- | --- | --- |
| 139 | 376 | O=C(NCCCN1CCN(c2cccc(Cl)c2Cl)CC1)c1cccc2c1-c1ccccc1C2 |  |
| 43 | 153 | O=C(NCCCN1CCN(c2cccc(Cl)c2Cl)CC1)c1cccc2c1-c1ccccc1C2=O |  |
| 1080 | 891 | O=C(NCC#CCN1CCN(c2cccc(Cl)c2Cl)CC1)c1cccc2c1-c1ccccc1C2 |  |
| 199 | 396 | O=C(NCCCN1CCN(c2cccc(Cl)c2Cl)CC1)c1ccc2c(c1)Cc1ccccc1-2 |  |
| 214 | 1000 | O=C(NCC#CCN1CCN(c2cccc(Cl)c2Cl)CC1)c1ccc2c(c1)Cc1ccccc1-2 |  |
| 4.5 | 134 | O=C(NCCCCN1CCN(c2cccc(Cl)c2Cl)CC1)c1cccc2c1-c1ccccc1C2 |  |
| 6 | 87.3 | O=C(NC/C=C\CN1CCN(c2cccc(Cl)c2Cl)CC1)c1ccc2c(c1)Cc1ccccc1-2 |  |
| 394 | 1700 | O=C(NCC#CCN1CCN(c2cccc(Cl)c2Cl)CC1)c1ccccc1 |  |
| 1.6 | 150 | O=C(NCCCCN1CCN(c2cccc(Cl)c2Cl)CC1)c1cccc2c1-c1ccccc1C2=O |  |
| 1.1 | 911 | O=C(NCCCCN1CCN(c2cccc(Cl)c2Cl)CC1)c1ccc2c(c1)Cc1ccccc1-2 |  |
